Experimental data published in US20120270237A9, “METHODS FOR THE IDENTIFICATION OF KINASE INTERACTING MOLECULES AND FOR THE PURIFICATION OF KINASE PROTEINS” (Cellzone AG, priority 2009, published 2012).

What was measured:
[1] = target: T1, GCK (Homo sapiens, UniProt Q12851); assay: Kinobeads competition binding, HeLa Placenta lysate mix; design: capturing and identification of kinases from mixed HeLa placenta lysates; endogenous in cells; host or cells: mixed lysate of HeLa cells and placenta tissue; settings: 10 μM free compound
T1 sequence (Q12851 1-820): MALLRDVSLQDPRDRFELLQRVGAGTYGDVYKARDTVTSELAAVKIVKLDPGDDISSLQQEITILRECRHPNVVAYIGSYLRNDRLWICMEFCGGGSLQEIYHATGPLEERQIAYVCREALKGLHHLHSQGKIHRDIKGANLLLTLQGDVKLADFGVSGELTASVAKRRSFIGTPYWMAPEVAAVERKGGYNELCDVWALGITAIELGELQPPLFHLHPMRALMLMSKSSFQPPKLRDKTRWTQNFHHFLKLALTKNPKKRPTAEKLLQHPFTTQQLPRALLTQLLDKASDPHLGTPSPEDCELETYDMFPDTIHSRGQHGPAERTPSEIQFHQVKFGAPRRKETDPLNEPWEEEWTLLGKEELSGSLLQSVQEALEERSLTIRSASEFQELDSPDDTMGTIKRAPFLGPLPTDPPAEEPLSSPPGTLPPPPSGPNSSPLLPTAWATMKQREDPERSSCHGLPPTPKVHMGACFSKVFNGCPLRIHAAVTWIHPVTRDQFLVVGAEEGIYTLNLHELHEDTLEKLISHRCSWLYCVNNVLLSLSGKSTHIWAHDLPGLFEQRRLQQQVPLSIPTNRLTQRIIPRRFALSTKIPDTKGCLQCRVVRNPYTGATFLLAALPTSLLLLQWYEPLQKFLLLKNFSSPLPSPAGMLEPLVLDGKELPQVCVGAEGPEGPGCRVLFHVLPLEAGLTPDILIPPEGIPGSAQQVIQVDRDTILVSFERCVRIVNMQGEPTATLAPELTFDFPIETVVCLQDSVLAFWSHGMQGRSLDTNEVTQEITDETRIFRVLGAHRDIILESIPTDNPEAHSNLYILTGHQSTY
Experimental: (§1) To one aliquot of cell lysate 10 μM of the free compound (FIG. 3, CZC31326) was added and allowed to bind to proteins in the lysate. Then the affinity matrix with the immobilized compound was added to capture proteins that were not interacting with the previously added free compound. Beads were separated from the lysate and bead bound proteins were eluted in SDS sample buffer and subsequently separated by SDS-Polyacrylamide gel electrophoresis (FIG. 10). Suitable gel bands were cut out and subjected to in-gel proteolytic digestion with trypsin. The second lysate aliquot was processed identically, however no free compound was added (DMSO solvent control). Peptides originating from samples 1 and 2 were labeled with iTRAQ reagents (iTRAQ 114 and iTRAQ 117) and the combined samples were analyzed with a nano-flow liquid chromatography system coupled online to a tandem mass spectrometer (LC-MS/MS) experiment followed by iTRAQ reporter ion quantification in the MS/MS spectra as described in Example 2.

[2] = target: FES (Homo sapiens, UniProt P07332); assay: as above; design: capturing and identification of kinases from mixed HeLa placenta lysates; endogenous in cells; host or cells: mixed lysate of HeLa cells and placenta tissue; settings: 10 μM free compound
Experimental: as §1

[3] = target: T2, MAP2K5 (Homo sapiens, UniProt Q13163); assay: as above; design: capturing and identification of kinases from mixed HeLa placenta lysates; endogenous in cells; host or cells: mixed lysate of HeLa cells and placenta tissue; settings: 10 μM free compound
T2 sequence (Q13163 1-448): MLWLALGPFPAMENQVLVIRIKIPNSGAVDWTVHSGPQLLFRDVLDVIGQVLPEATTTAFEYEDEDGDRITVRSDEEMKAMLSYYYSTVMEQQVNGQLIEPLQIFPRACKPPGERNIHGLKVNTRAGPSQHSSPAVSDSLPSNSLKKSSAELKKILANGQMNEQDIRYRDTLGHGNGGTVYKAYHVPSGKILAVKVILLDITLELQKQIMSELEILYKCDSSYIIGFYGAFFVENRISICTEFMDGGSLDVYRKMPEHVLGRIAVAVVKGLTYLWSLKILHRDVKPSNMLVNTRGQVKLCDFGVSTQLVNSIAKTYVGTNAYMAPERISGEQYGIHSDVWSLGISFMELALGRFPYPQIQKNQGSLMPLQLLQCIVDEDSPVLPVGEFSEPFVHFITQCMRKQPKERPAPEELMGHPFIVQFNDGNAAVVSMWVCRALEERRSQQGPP
Experimental: as §1

[4] = target: IRE1 (Homo sapiens, UniProt O75460); assay: Kinobeads competition binding, L-363 cell lysate; design: Identified kinases with CZC31326 from L-363 cell lysate; endogenous in cells; host or cells: L-363 (MG132-treated); settings: 10 μM free compound, L-363 lysate
Experimental: as §1, with “8).” for “10).”
(§2) For this experiment the human plasma cell leukaemia line L-363 was used (German Collection of Microorganisms and Cell Cultures, DSMZ number ACC49, Braunschweig, Germany). Cells were treated for three hours with 20 μM of the proteasome inhibitor MG132 (Z-Leu-Leu-Leu-al, Sigma C2211) prior to cell harvesting.

[5] = target: JAK1 (Homo sapiens, UniProt P23458); assay: Kinobeads competition binding, L-363 cell lysate; design: Identified kinases with CZC31326 from L-363 cell lysate; endogenous in cells; host or cells: L-363 (MG132-treated); settings: 10 μM free compound, L-363 lysate
Experimental: as §1, with “8).” for “10).”
as §2

[6] = target: JNK2 (Homo sapiens, UniProt P45984); assay: Kinobeads competition binding, L-363 cell lysate; design: Identified kinases with CZC31326 from L-363 cell lysate; endogenous in cells; host or cells: L-363 (MG132-treated); settings: 10 μM free compound, L-363 lysate
Experimental: as §1, with “8).” for “10).”
as §2

Chain of JAK1 (P23458 whole entry): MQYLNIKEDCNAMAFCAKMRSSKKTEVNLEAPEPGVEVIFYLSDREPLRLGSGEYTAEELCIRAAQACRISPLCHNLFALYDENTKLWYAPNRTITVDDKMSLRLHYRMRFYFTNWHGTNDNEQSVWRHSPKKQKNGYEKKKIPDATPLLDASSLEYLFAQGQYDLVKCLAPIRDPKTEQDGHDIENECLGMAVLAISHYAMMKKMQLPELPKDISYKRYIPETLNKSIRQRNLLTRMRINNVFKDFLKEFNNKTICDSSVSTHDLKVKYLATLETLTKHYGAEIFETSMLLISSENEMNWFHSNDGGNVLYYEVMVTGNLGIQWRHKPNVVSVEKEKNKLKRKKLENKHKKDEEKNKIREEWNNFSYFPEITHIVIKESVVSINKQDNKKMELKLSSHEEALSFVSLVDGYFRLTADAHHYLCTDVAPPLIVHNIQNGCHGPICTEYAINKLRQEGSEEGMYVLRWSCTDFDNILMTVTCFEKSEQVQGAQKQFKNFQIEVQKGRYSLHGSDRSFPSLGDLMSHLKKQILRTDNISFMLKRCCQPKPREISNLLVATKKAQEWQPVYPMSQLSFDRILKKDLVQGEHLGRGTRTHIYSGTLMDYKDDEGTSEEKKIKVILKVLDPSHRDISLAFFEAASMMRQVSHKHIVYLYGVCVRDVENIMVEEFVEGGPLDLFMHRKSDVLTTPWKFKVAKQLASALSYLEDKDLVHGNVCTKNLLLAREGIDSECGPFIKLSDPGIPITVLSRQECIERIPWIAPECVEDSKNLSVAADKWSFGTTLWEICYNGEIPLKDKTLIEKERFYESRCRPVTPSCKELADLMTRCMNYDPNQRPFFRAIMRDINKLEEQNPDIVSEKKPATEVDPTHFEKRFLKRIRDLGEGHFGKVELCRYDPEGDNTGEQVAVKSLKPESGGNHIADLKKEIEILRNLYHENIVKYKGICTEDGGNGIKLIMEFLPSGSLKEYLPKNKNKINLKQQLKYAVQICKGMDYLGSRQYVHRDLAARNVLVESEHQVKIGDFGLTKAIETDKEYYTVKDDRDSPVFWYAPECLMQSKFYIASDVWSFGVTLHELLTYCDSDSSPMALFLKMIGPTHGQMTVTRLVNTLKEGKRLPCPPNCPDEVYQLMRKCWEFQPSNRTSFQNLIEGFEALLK
Chain of JNK2 (P45984 whole entry): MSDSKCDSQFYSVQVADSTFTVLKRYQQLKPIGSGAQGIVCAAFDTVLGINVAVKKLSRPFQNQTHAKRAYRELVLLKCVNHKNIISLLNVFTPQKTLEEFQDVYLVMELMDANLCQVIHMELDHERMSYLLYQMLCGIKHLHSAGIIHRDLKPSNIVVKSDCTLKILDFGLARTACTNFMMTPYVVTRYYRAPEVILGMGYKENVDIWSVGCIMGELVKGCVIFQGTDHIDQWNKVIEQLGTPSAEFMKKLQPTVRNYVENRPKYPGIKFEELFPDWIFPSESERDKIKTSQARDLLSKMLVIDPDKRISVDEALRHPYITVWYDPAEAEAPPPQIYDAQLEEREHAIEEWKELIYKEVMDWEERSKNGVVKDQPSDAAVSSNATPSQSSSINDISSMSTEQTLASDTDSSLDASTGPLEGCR
Chain of IRE1 (O75460 19-977): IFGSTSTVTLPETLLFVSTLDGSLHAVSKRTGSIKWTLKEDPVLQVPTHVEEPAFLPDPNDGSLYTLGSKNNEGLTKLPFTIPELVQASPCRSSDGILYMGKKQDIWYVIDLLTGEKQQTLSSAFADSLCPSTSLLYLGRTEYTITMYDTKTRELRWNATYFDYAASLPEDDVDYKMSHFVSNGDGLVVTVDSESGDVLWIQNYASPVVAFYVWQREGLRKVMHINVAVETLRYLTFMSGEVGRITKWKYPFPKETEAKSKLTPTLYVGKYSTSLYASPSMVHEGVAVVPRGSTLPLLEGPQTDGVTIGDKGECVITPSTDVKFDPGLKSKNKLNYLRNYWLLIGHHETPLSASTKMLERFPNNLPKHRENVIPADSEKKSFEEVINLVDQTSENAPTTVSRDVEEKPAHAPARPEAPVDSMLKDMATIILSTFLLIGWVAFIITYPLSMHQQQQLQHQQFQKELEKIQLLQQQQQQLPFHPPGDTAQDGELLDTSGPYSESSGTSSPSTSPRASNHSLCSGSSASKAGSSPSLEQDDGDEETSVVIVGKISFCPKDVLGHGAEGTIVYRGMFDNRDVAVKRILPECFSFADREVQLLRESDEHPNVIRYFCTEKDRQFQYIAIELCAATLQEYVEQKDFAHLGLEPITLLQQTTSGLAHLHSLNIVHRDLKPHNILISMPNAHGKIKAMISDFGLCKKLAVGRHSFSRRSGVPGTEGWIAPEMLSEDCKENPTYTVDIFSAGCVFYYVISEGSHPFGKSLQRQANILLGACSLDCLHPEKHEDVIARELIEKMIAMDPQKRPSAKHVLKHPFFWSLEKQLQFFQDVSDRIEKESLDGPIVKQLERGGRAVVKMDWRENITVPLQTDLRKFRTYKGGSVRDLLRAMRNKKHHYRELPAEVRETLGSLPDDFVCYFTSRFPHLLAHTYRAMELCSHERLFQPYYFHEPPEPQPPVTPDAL
Chain of FES (P07332 whole entry): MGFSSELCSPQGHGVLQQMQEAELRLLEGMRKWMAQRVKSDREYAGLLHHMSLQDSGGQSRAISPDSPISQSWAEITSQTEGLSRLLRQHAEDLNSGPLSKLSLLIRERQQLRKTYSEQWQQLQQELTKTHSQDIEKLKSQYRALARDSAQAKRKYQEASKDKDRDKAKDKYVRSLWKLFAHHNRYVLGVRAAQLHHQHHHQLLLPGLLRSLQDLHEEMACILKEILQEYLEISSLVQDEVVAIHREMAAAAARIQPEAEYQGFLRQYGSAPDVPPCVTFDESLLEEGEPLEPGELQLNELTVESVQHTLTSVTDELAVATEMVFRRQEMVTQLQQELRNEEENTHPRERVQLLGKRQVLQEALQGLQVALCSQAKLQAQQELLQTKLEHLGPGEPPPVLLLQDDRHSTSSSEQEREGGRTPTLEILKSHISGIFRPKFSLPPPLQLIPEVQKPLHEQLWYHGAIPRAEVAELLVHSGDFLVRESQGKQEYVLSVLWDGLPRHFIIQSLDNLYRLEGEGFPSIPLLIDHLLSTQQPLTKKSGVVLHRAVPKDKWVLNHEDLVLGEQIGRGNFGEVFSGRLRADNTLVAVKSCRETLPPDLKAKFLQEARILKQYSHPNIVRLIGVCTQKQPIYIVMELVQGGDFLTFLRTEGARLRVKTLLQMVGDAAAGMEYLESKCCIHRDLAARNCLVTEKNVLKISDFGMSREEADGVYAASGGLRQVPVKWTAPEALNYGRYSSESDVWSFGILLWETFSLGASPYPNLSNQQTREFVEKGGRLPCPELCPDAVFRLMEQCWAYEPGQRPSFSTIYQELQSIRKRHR

CS(=O)(=O)Nc1ccccc1Nc1nc(Nc2cccc(OCCN)c2)ncc1Cl [CZC31326, N-(2-(2-(3-(2-aminoethoxy)phenylamino)-5-chloropyrimidin-4-ylamino)phenyl)methanesulfonamide]
inhibition at 10 µM [1]: 93.8%
inhibition at 10 µM [2]: 95.1%
inhibition at 10 µM [3]: 90.4%
inhibition at 10 µM [4]: 97.9%
Competition % [5]: 97.2%
Competition % [6]: 88%
